Experimental data: PMC8920929 (The Journal of Biological Chemistry, 2022)
Where a chain is given by its changes, count along the chain named.

Tests used:
[1] = target: T1, TRPV3-I505A (Homo sapiens, UniProt Q8NET8, I505A); experiment: Whole-cell and single-channel recordings of the TRPV3-I505A mutant; type: cell-based
T1 sequence (Q8NET8 1-790 I505A): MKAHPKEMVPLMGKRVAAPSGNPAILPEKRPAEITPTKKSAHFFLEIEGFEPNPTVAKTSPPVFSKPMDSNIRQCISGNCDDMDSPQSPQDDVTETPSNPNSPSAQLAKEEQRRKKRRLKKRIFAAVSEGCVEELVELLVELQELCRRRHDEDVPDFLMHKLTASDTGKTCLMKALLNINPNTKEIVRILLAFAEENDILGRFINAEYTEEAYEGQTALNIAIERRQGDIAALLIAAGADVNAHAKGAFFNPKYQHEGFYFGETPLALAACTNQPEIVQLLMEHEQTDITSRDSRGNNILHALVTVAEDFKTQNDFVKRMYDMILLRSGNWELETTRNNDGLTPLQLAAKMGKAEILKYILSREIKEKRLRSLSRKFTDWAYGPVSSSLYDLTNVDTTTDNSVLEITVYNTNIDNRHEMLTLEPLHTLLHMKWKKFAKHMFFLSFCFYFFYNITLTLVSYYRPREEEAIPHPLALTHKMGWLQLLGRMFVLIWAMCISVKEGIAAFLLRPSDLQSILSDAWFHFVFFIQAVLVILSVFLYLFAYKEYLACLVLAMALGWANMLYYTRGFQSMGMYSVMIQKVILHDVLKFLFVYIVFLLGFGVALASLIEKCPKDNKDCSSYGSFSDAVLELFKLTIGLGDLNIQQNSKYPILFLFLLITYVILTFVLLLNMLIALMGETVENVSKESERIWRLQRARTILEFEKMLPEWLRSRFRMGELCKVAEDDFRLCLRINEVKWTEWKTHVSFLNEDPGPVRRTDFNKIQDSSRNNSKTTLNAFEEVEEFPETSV

[2] = target: T2, human TRPV3 (Homo sapiens, UniProt Q8NET8); experiment: Inside-out single channel recordings of TRPV3; type: biochemical
T2 sequence (Q8NET8 1-790): T1 sequence (Q8NET8 1-790 I505A) with A505I

[3] = target: T3, TRPV3-L508A (Homo sapiens, UniProt Q8NET8, L508A); experiment: Whole-cell and single-channel recordings of the TRPV3-L508A mutant; type: cell-based; details: carvacrol 0.3-3.0 mM or 50 μM 2-APB
T3 sequence (Q8NET8 1-790 L508A): T1 sequence (Q8NET8 1-790 I505A) with A505I, L508A

[4] = +80 mV, carvacrol 300 μM or 2-APB 50 μM alone

EC50 [1]: 3.51 ± 0.44 mM
right shift of channel activation versus WT TRPV3 ([1]; I505A versus WT): over 10 fold
single-channel open frequency (Freq) [2, 4]: 59.21 ± 11.32 Hz
single-channel open probability (Po) [2, 4]: 0.72 ± 0.05
unitary conductance of TRPV3 single channels ([2]; inside-out patches, -80 mV to +80 mV, carvacrol 300 μM, 2-APB 50 μM, n = 4): 182.0 ± 6.4 pS
activation of TRPV3 L508A mutant channel [3]: loss of the mutant channel activation
Compound: Cc1ccc(C(C)C)cc1O [carvacrol, 5-Isopropyl-2-methylphenol]
activation of TRPV3 I505A mutant channel ([1]; carvacrol 0.3-3.0 mM or 50 μM 2-APB): weak activation of TRPV3 I505A at high concentration of 3 mM
